Assays:
AURKA = target: T1, AURKA (Homo sapiens, UniProt O14965); assay: KINOMEscan competition binding assay; settings: LL6 at 10 μM; read-out: Percent Control
T1 construct: purchased DiscoverX KINOMEscan
Protocol: […] To briefly summarize, Kd was measured by a competition binding assay that quantitatively measures the ability of a compound to compete with an immobilized ligand. […] […] See more details in the cited references [39]-[42] and see also at www.discoverx.com.

[1] = test system: Kras^G12D/+-driven lung tumors; assay: Mutant Kras-driven lung tumorigenesis model; type: in vivo, Kras^G12D/+ transgenic mice
Protocol: All animal experiments were performed according to protocols approved by the Seoul National University Institutional Animal Care and Use Committee. Mice were fed standard mouse chow and water ad libitum and housed in temperature- and humidity-controlled facilities with a 12-h light/12-h dark cycle. For xenograft experiments, H1944 and A549 cells (1×10^6 cells/spot, diluted in equal amounts of PBS and Matrigel) were subcutaneously injected into the right flank of 6-week-old non-obese diabetic-severe combined immunodeficiency (NOD/SCID) mice. After the tumor volume reached 50-150 mm^3, the mice were randomly grouped and treated with vehicle [10% DMSO in 60% polyethylene glycol (PEG) 400 solution] or LL6 (80 mg/kg) 6 days per week for 2 weeks. Tumor growth was determined by measuring the short and long diameters of the tumor with a caliper, and body weight was measured once or twice per week to monitor toxicity. Additionally, to evaluate the effect of LL6 on mutant Kras-driven lung tumorigenesis, 2-month-old Kras^G12D/+ transgenic mice were randomized and treated with vehicle or LL6 (80 mg/kg) for 8 weeks. The mice were euthanized, and tumor formation was evaluated and compared with that of the vehicle-treated control group. Microscopic evaluations of the H&E-stained lung tissue were also performed to measure mean tumor number (N) and volume (V) in a blinded fashion. The number and size of tumors were calculated in five sections uniformly distributed throughout each lung. In both animal experiments, the tumor volume and burden of each sample were calculated using the following formulas: Tumor volume (mm^3) = (short diameter)^2 × (long diameter) × 0.5; Tumor burden (mm^3) = number of tumors × the average of tumor volume.
Sections derived from formalin-fixed and paraffin-embedded murine lung tissues were deparaffinized by incubation overnight at 65 °C, followed by rehydration in sequential xylene and ethanol rinses. After incubation with hydrogen peroxide, the slides were washed with PBS and then incubated with 0.3% Triton X-100. The sections were incubated with blocking solution (Dako Protein Block, Dako, Glostrup, Denmark) for 30 min at room temperature after washing with PBS. The sections were further incubated with primary antibodies (pAXL, pIGF-1R, and pSrc, diluted at 1:200) overnight at 4 °C, washed with PBS several times, incubated with the corresponding biotinylated secondary antibodies (diluted at 1:500), and then washed with PBS multiple times. After adding avidin-biotin complexes (Vector Laboratories, Burlingame, CA, USA), the sections were visualized using diaminobenzidine detection reagent (Enzo Life Sciences, Farmingdale, NY, USA) and mounted with a mounting solution (Vector Laboratories).

T1 sequence (O14965 whole entry): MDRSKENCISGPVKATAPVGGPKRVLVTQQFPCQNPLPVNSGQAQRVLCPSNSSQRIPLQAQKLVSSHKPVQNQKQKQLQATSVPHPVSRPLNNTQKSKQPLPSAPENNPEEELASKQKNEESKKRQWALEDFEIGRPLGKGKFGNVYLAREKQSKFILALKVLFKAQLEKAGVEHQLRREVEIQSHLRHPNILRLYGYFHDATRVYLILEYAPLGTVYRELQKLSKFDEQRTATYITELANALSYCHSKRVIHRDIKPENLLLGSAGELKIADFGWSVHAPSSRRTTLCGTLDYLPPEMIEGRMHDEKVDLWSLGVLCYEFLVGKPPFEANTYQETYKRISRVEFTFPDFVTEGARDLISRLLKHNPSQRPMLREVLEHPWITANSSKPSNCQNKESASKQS

Structure (SMILES): Nc1ncnc2c1c(-c1ccc(Cl)cc1)nn2CCn1cc(COc2ccc(Nc3nccc(Nc4cnc5ccccc5c4)n3)cc2)nn1 [LL6]
- remaining binding at 10 µM (AURKA): 48%
- tumor volume and burden ([1]; 80 mg/kg for 8 weeks): Substantial decreases
- lung tumor nodules (multiplicity) ([1]; 80 mg/kg for 8 weeks, especially nodules > 1 mm^3): significantly decreased
- body weight ([1]; 80 mg/kg for 8 weeks, vs vehicle): no detectable difference
- levels of pIGF-1R, pSrc, and pAXL in lung tumors ([1]; immunohistochemistry, 80 mg/kg, vs vehicle): significantly decreased levels

Source: paper PMC7778606, “Development of the phenylpyrazolo[3,4-d]pyrimidine-based, insulin-like growth factor receptor/Src/AXL-targeting small molecule kinase inhibitor” (Theranostics, 2021)
